`Nc1nc(Cl)cc(Cl)n1` showed a solubility (mole fraction) (in 1,4-dioxane, 288.15 K) of 0.0122, a solubility (mole fraction) (in 1,4-dioxane, 293.15 K) of 0.0139 and a solubility (mole fraction) (in 1,4-dioxane, 298.15 K) of 0.016. It also gave a solubility (mole fraction) (in 1,4-dioxane, 303.15 K) of 0.0182, a solubility (mole fraction) (in 1,4-dioxane, 308.15 K) of 0.0205 and a solubility (mole fraction) (in 1,4-dioxane, 313.15 K) of 0.0233. For the same compound, the solubility (mole fraction) (in 1,4-dioxane, 318.15 K) was 0.0262, the solubility (mole fraction) (in acetone, 278.15 K) was 0.00538 and the solubility (mole fraction) (in acetone, 283.15 K) was 0.00618. The solubility (mole fraction) (in acetone, 288.15 K) was 0.0073, the solubility (mole fraction) (in acetone, 293.15 K) was 0.00848 and the solubility (mole fraction) (in acetone, 298.15 K) was 0.0097. It also gave a solubility (mole fraction) (in acetone, 303.15 K) of 0.011, a solubility (mole fraction) (in acetone, 308.15 K) of 0.0126 and a solubility (mole fraction) (in acetone, 313.15 K) of 0.0143. For the same compound, the solubility (mole fraction) (in acetone, 318.15 K) was 0.0163, the solubility (mole fraction) (in acetonitrile, 278.15 K) was 0.00128 and the solubility (mole fraction) (in acetonitrile, 283.15 K) was 0.00155. It also gave a solubility (mole fraction) (in acetonitrile, 288.15 K) of 0.00186, a solubility (mole fraction) (in acetonitrile, 293.15 K) of 0.00223 and a solubility (mole fraction) (in acetonitrile, 298.15 K) of 0.00265. It also gave a solubility (mole fraction) (in acetonitrile, 303.15 K) of 0.00314, a solubility (mole fraction) (in acetonitrile, 308.15 K) of 0.0037 and a solubility (mole fraction) (in acetonitrile, 313.15 K) of 0.00434. The solubility (mole fraction) (in acetonitrile, 318.15 K) was 0.00505, the solubility (mole fraction) (in cyclohexane, 283.15 K) was 4.26e-05 and the solubility (mole fraction) (in cyclohexane, 288.15 K) was 5.55e-05. For the same compound, the solubility (mole fraction) (in cyclohexane, 293.15 K) was 7.15e-05, the solubility (mole fraction) (in cyclohexane, 298.15 K) was 9.05e-05 and the solubility (mole fraction) (in cyclohexane, 303.15 K) was 0.000115. The solubility (mole fraction) (in cyclohexane, 308.15 K) was 0.000144, the solubility (mole fraction) (in cyclohexane, 313.15 K) was 0.000181 and the solubility (mole fraction) (in cyclohexane, 318.15 K) was 0.000224. It also gave a solubility (mole fraction) (in ethanol, 278.15 K) of 0.000929, a solubility (mole fraction) (in ethanol, 283.15 K) of 0.00111 and a solubility (mole fraction) (in ethanol, 288.15 K) of 0.00132. For the same compound, the solubility (mole fraction) (in ethanol, 293.15 K) was 0.00158, the solubility (mole fraction) (in ethanol, 298.15 K) was 0.00183 and the solubility (mole fraction) (in ethanol, 303.15 K) was 0.00215. For the same compound, the solubility (mole fraction) (in ethanol, 308.15 K) was 0.00251, the solubility (mole fraction) (in ethanol, 313.15 K) was 0.00293 and the solubility (mole fraction) (in ethanol, 318.15 K) was 0.00339. For the same compound, the solubility (mole fraction) (in ethyl acetate, 278.15 K) was 0.00458, the solubility (mole fraction) (in ethyl acetate, 283.15 K) was 0.00535 and the solubility (mole fraction) (in ethyl acetate, 288.15 K) was 0.00631. It also gave a solubility (mole fraction) (in ethyl acetate, 293.15 K) of 0.0073, a solubility (mole fraction) (in ethyl acetate, 298.15 K) of 0.00847 and a solubility (mole fraction) (in ethyl acetate, 303.15 K) of 0.00981. The solubility (mole fraction) (in ethyl acetate, 308.15 K) was 0.0113, the solubility (mole fraction) (in ethyl acetate, 313.15 K) was 0.0129 and the solubility (mole fraction) (in ethyl acetate, 318.15 K) was 0.0147. The solubility (mole fraction) (in isopropanol, 278.15 K) was 0.000517, the solubility (mole fraction) (in isopropanol, 283.15 K) was 0.000645 and the solubility (mole fraction) (in isopropanol, 288.15 K) was 0.000808. It also gave a solubility (mole fraction) (in isopropanol, 293.15 K) of 0.000989, a solubility (mole fraction) (in isopropanol, 298.15 K) of 0.00121 and a solubility (mole fraction) (in isopropanol, 303.15 K) of 0.00148. The solubility (mole fraction) (in isopropanol, 308.15 K) was 0.00178, the solubility (mole fraction) (in isopropanol, 313.15 K) was 0.00215 and the solubility (mole fraction) (in isopropanol, 318.15 K) was 0.00257. It also gave a solubility (mole fraction) (in methanol, 278.15 K) of 0.00113, a solubility (mole fraction) (in methanol, 283.15 K) of 0.00132 and a solubility (mole fraction) (in methanol, 288.15 K) of 0.00158. It also gave a solubility (mole fraction) (in methanol, 293.15 K) of 0.00183, a solubility (mole fraction) (in methanol, 298.15 K) of 0.00218 and a solubility (mole fraction) (in methanol, 303.15 K) of 0.00251. It also gave a solubility (mole fraction) (in methanol, 308.15 K) of 0.00293, a solubility (mole fraction) (in methanol, 313.15 K) of 0.00335 and a solubility (mole fraction) (in methanol, 318.15 K) of 0.00389. The solubility (mole fraction) (in n-propanol, 278.15 K) was 0.000792, the solubility (mole fraction) (in n-propanol, 283.15 K) was 0.00095 and the solubility (mole fraction) (in n-propanol, 288.15 K) was 0.00113. It also gave a solubility (mole fraction) (in n-propanol, 293.15 K) of 0.00136, a solubility (mole fraction) (in n-propanol, 298.15 K) of 0.00163 and a solubility (mole fraction) (in n-propanol, 303.15 K) of 0.00192. For the same compound, the solubility (mole fraction) (in n-propanol, 308.15 K) was 0.00226, the solubility (mole fraction) (in n-propanol, 313.15 K) was 0.00265 and the solubility (mole fraction) (in n-propanol, 318.15 K) was 0.00313. For the same compound, the solubility (mole fraction) (in toluene, 278.15 K) was 0.000551, the solubility (mole fraction) (in toluene, 283.15 K) was 0.000695 and the solubility (mole fraction) (in toluene, 288.15 K) was 0.000856. It also gave a solubility (mole fraction) (in toluene, 293.15 K) of 0.00105, a solubility (mole fraction) (in toluene, 298.15 K) of 0.00128 and a solubility (mole fraction) (in toluene, 303.15 K) of 0.00156. The solubility (mole fraction) (in toluene, 308.15 K) was 0.00188, the solubility (mole fraction) (in toluene, 313.15 K) was 0.00228 and the solubility (mole fraction) (in toluene, 318.15 K) was 0.00274.

Source: BigSolDB 2.1
